Laboratory results from patent publication US9499550B2 (BRISTOL-MYERS SQUIBB COMPANY, priority 2012, dated 2016).
Where two headings read alike, the source gives them in different places.

Key:
[1] = test system: HCV genotype 1b (Con1) replicon in HUH-7 cells; assay: HCV replicon luciferase reporter assay, genotype 1b; format: cell-based; details: Hepatitis C virus, Huh-7, 72 h, 3 days incubation
Method in brief: (§1)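 Replicon inhibition for both genotypes was measured as Renilla luciferase signal (EnduRen, 7.5 μM final, 2 h) after 3-day, 37° C exposure of replicon-bearing HUH-7 cells in 4% FCS DMEM, 0.5% DMSO. The 1b construct carries S1179I; the 1a H77 construct carries P1496L and S2204I. Twenty-point, 3-fold dilutions were fitted four-parametrically for EC50, and CC50 was taken from multiplexed Cell Titer-Blue.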

[2] = test system: HCV genotype 1a (H77 strain) replicon in HUH-7 cells; assay: HCV replicon luciferase reporter assay, genotype 1a; format: cell-based; details: Hepatitis C virus, Huh-7, 72 h, 3 days incubation
Method in brief: as §1

[3] = HCV genotype 1b replicon luciferase, read-out: LE_1b (EC50, range)
[4] = HCV genotype 1a replicon luciferase, read-out: LE_1a (EC50, range)
[5] = HCV genotype 1b replicon luciferase assay, range class, read-out: LE_1b (EC50, range)
[6] = HCV genotype 1a replicon luciferase assay, range class, read-out: LE_1a (EC50, range)

Compound | EC50 [1, 3] [nM] | EC50 [2, 4] [nM] | other results
CC[C@@H]1C[C@H](C)CC/C=C\[C@@H]2C[C@@]2(C(=O)NS(=O)(=O)C2CC2)NC(=O)[C@@H]2C[C@@H](Oc3ncc(N4CCOCC4)c4cc(OC)c(F)cc34)CN2C(=O)[C@H]1NC(=O)OC(C)(C)C [Compound 4240, tert-butyl ((2R,6S,7R,9R,13aS,14aR,16aS,Z)-14a-((cyclopropylsulfonyl)carbamoyl)-7-ethyl-2-((7-fluoro-6-methoxy-4-morpholinoisoquinolin-1-yl)oxy)-9-methyl-5,16-dioxo-1,2,3,5,6,7,8,9,10,11,13a,14,14a,15,16,16a-hexadecahydrocyclopropa[e]pyrrolo[1,2-a][1,4]diazacyclopentadecin-6-yl)carbamate] | 1.01 to 5 | 1.01 to 5 | EC50 ([1]; HCV genotype 1b replicon luciferase, read-out: LE_1b (EC50)): 1.09 nM; EC50 ([2]; HCV genotype 1a replicon luciferase, read-out: LE_1a (EC50)): 1.23 nM
COc1cc2c(OC)cnc(O[C@@H]3C[C@H]4C(=O)N[C@]5(C(=O)NS(=O)(=O)C6(C(F)F)CC6)C[C@H]5/C=C\CC[C@@H](C)C[C@@H](C)[C@H](NC(=O)OC(C)(C)C(F)(F)F)C(=O)N4C3)c2cc1F [Compound 4095] |  |  | EC50 ([1]; GETYPE1B, HCV genotype 1b replicon luciferase, read-out: LE_1b (EC50, range)): < 5.46 nM; EC50 ([2]; GETYPE1A, HCV genotype 1a replicon luciferase, read-out: LE_1a (EC50, range)): < 5.46 nM
CC[C@@H]1C[C@H](C)CC/C=C\[C@@H]2C[C@@]2(C(=O)NS(=O)(=O)C2(C)CC2)NC(=O)[C@@H]2C[C@@H](Oc3nccc4cc(OC)c(F)cc34)CN2C(=O)[C@H]1NC(=O)N1CCC(F)(F)CC1 [Compound 4344, (2R,6S,7R,9R,13aS,14aR,16aS,Z)-6-(4,4-difluoropiperidine-1-carboxamido)-7-ethyl-2-((7-fluoro-6-methoxyisoquinolin-1-yl)oxy)-9-methyl-N-((1-methylcyclopropyl)sulfonyl)-5,16-dioxo-1,2,3,5,6,7,8,9,10,11,13a,14,14a,15,16,16a-hexadecahydrocyclopropa[e]pyrrolo[1,2-a][1,4]diazacyclopentadecine-14a-carboxamide] | 1.01 to 5 | 1.01 to 5 | 
COc1cc2ccccc2c(O[C@@H]2C[C@H]3C(=O)N[C@]4(C(=O)NS(=O)(=O)C5CC5)C[C@H]4/C=C\CC[C@H](C)C[C@@H](C)[C@H](NC(=O)OC(C)(C)C(F)(F)F)C(=O)N3C2)n1 [Compound 6017, 1,1,1-trifluoro-2-methylpropan-2-yl((2R,6S,7R,9S,13aS,14aR,16aS,Z)-14a-((cyclopropylsulfonyl)carbamoyl)-2-((3-methoxyisoquinolin-1-yl)oxy)-7,9-dimethyl-5,16-dioxo-1,2,3,5,6,7,8,9,10,11,13a,14,14a,15,16,16a-hexadecahydrocyclopropa[e]pyrrolo[1,2-a][1,4]diazacyclopentadecin-6-yl)carbamate] | < 5.46 | < 5.46 | 
COc1cc(F)cc2c(O[C@@H]3C[C@H]4C(=O)N[C@]5(C(=O)NS(=O)(=O)C6(C)CC6)C[C@H]5/C=C\CC[C@@H](C)C[C@@H](C)[C@H](NC(=O)O[C@H](C)C(F)(F)F)C(=O)N4C3)nccc12 [Compound 3158, (R)-1,1,1-trifluoropropan-2-yl ((2R,6S,7R,9R,13aS,14aR,16aS,Z)-2-((7-fluoro-5-methoxyisoquinolin-1-yl)oxy)-7,9-dimethyl-14a-(((1-methylcyclopropyl)sulfonyl)carbamoyl)-5,16-dioxo-1,2,3,5,6,7,8,9,10,11,13a,14,14a,15,16,16a-hexadecahydrocyclopropa[e]pyrrolo[1,2-a][1,4]diazacyclopentadecin-6-yl)carbamate] |  |  | EC50 [1, 5]: < 5.46 nM; EC50 [2, 6]: < 5.46 nM
COc1ccc2c(O[C@@H]3C[C@H]4C(=O)N[C@]5(C(=O)NS(=O)(=O)C6(C)CC6)C[C@H]5/C=C\CC[C@@H](C)C[C@@H](C)[C@H](NC(=O)OC(C)(C)C)C(=O)N4C3)nc(-c3ccc(C(C)(C)C)cc3)cc2c1 [Compound 4078, tert-butyl (2R,6S,7R,9R,13aS,14aR,16aS,Z)-2-(3-(4-tert-butylphenyl)-6-methoxyisoquinolin-1-yloxy)-7,9-dimethyl-14a-(1-methylcyclopropylsulfonylcarbamoyl)-5,16-dioxo-1,2,3,5,6,7,8,9,10,11,13a,14,14a,15,16,16a-hexadecahydrocyclopropa[e]pyrrolo[1,2-a][1,4]diazacyclopentadecin-6-ylcarbamate] | 4.82 to 103 | 4.82 to 103 | 
COc1ccc2c(O[C@@H]3C[C@H]4C(=O)N[C@]5(C(=O)NS(=O)(=O)C6(C)CC6)C[C@H]5/C=C\CC[C@H](C)C[C@@H](C)[C@H](NC(=O)OCC5(C)CC5)C(=O)N4C3)nc(-c3ccc(OC(C)C)c(F)c3)cc2c1 [Compound 3067, (1-methylcyclopropyl)methyl ((2R,6S,7R,9S,13aS,14aR,16aS,Z)-2-((3-(3-fluoro-4-isopropoxyphenyl)-6-methoxyisoquinolin-1-yl)oxy)-7,9-dimethyl-14a-(((1-methylcyclopropyl)sulfonyl)carbamoyl)-5,16-dioxo-1,2,3,5,6,7,8,9,10,11,13a,14,14a,15,16,16a-hexadecahydrocyclopropa[e]pyrrolo[1,2-a][1,4]diazacyclopentadecin-6-yl)carbamate] |  |  | EC50 [1, 5]: < 5.46 nM; EC50 [2, 6]: 4.82 to 103 nM
CC[C@@H]1C[C@H](C)CC/C=C\[C@@H]2C[C@@]2(C(=O)NS(=O)(=O)C2(C)CC2)NC(=O)[C@@H]2C[C@@H](Oc3nccc4c5c(ccc34)OCCO5)CN2C(=O)[C@H]1NC(=O)OC(C)(C)C(F)(F)F [Compound 5334, 1,1,1-trifluoro-2-methylpropan-2-yl((2R,6S,7R,9R,13aS,14aR,16aS,Z)-2-((2,3-dihydro-[1,4]dioxino[2,3-f]isoquinolin-7-yl)oxy)-7-ethyl-9-methyl-14a-(((1-methylcyclopropyl)sulfonyl)carbamoyl)-5,16-dioxo-1,2,3,5,6,7,8,9,10,11,13a,14,14a,15,16,16a-hexadecahydrocyclopropa[e]pyrrolo[1,2-a][1,4]diazacyclopentadecin-6-yl)carbamate] | < 5.46 | < 5.46 | 
CCOc1cc2ccnc(O[C@@H]3C[C@H]4C(=O)N[C@]5(C(=O)NS(=O)(=O)C6(CF)CC6)C[C@H]5/C=C\CC[C@@H](C)C[C@@H](C)[C@H](NC(=O)OC(C)(C)C(F)(F)F)C(=O)N4C3)c2cc1F [Compound 5413, 1,1,1-trifluoro-2-methylpropan-2-yl((2R,6S,7R,9R,13aS,14aR,16aS,Z)-2-((6-ethoxy-7-fluoroisoquinolin-1-yl)oxy)-14a-(((1-(fluoromethyl)cyclopropyl)sulfonyl)carbamoyl)-7,9-dimethyl-5,16-dioxo-1,2,3,5,6,7,8,9,10,11,13a,14,14a,15,16,16a-hexadecahydrocyclopropa[e]pyrrolo[1,2-a][1,4]diazacyclopentadecin-6-yl)carbamate] | 0.51 to 1 | 1.01 to 5 | 
CC[C@@H]1C[C@H](C)CC/C=C\[C@@H]2C[C@@]2(C(=O)NS(=O)(=O)C2(C)CC2)NC(=O)[C@@H]2C[C@@H](Oc3ncc(OC)c4ccc(F)cc34)CN2C(=O)[C@H]1NC(=O)C1(C(F)(F)F)CC1 [Compound 4323, (2R,6S,7R,9R,13aS,14aR,16aS,Z)-7-ethyl-2-((7-fluoro-4-methoxyisoquinolin-1-yl)oxy)-9-methyl-N-((1-methylcyclopropyl)sulfonyl)-5,16-dioxo-6-(1-(trifluoromethyl)cyclopropanecarboxamido)-1,2,3,5,6,7,8,9,10,11,13a,14,14a,15,16,16a-hexadecahydrocyclopropa[e]pyrrolo[1,2-a][1,4]diazacyclopentadecine-14a-carboxamide] | 0.51 to 1 | 1.01 to 5 | 
COc1cc2cc(-c3ccc(OC(C)C)cc3)nc(O[C@@H]3C[C@H]4C(=O)N[C@]5(C(=O)NS(=O)(=O)C6CC6)C[C@H]5/C=C\CC[C@@H](C)C[C@@H](C)[C@H](NC(=O)O[C@@H]5C[C@@H]6C[C@@H]6C5)C(=O)N4C3)c2cc1F [Compound 3188, (1R,3r,5S)-bicyclo[3.1.0]hexan-3-yl((2R,6S,7R,9R,13aS,14aR,16aS,Z)-14a-((cyclopropylsulfonyl)carbamoyl)-2-((7-fluoro-3-(4-isopropoxyphenyl)-6-methoxyisoquinolin-1-yl)oxy)-7,9-dimethyl-5,16-dioxo-1,2,3,5,6,7,8,9,10,11,13a,14,14a,15,16,16a-hexadecahydrocyclopropa[e]pyrrolo[1,2-a][1,4]diazacyclopentadecin-6-yl)carbamate] | < 5.46 | < 5.46 | 
CC(C)Oc1ccc2c(O[C@@H]3C[C@H]4C(=O)N[C@]5(C(=O)NS(=O)(=O)C6CC6)C[C@H]5/C=C\CC[C@@H](C)C[C@@H](C)[C@H](NC(=O)O[C@H](C)C(F)(F)F)C(=O)N4C3)nccc2c1 [Compound 5150, (R)-1,1,1-trifluoropropan-2-yl((2R,6S,7R,9R,13aS,14aR,16aS,Z)-14a-((cyclopropylsulfonyl)carbamoyl)-2-((6-isopropoxyisoquinolin-1-yl)oxy)-7,9-dimethyl-5,16-dioxo-1,2,3,5,6,7,8,9,10,11,13a,14,14a,15,16,16a-hexadecahydrocyclopropa[e]pyrrolo[1,2-a][1,4]diazacyclopentadecin-6-yl)carbamate] | < 5.46 | < 5.46 | 
